For assay [1], the system named is MRE11 deficient A2780cis cells. Briefly: FEN1 inhibitor cytotoxicity, MRE11 deficient A2780cis. Type of assay: cell-based, human. The settings on record: vs A2780cis control.
In the next assay the test system is PEO4 spheroids. Briefly: 3D spheroid assay, PEO4. The settings on record: FEN1i/cisplatin combination vs cisplatin or FEN1i monotherapy. Type of assay: cell-based, human. As to the method: with ice cold PBS and fixed in 70% ethanol for 1h at -20°C. After removal of the fixative solution by centrifugation, cells were stained with 2 µg/ml of phospho-Histone (γH2AX) Ser139 (16202A, Millipore, UK) to detect DSBs.
Cell cycle progression: Cells were treated with 20 µg/ml RNase A (12091021, Invitrogen) and then 10 µg/ml Propidium Iodide (P4170, Sigma Aldrich) was added to determine the cell cycle distribution. The samples were analysed on a Beckman-Coulter FC500 flow cytometer using a 488nm laser for excitation and emission data for PI collected using a 620nm bandpass filter (FL3) and a 525nm bandpass filter (FL1) for FITC-anti-phospho-Histone H2A.X.
Apoptosis detection: Annexin V detection kit (556547, BD Biosciences) was used to quantify apoptotic cells. Briefly, cells were trypsinized, washed with PBS and the cellular pellet was re-suspended in Anexin Binding Buffer (1×). […] All the samples were analysed on a Beckman-Coulter FC500 flow cytometer. The percentage of apoptotic cells was determined (late apoptotic = FITC-Annexin V positive, PI positive early apoptotic = FITC-Annexin V positive, PI negative; live cells = FITC-Annexin V negative, PI negative) and compared for untreated and treated samples. […]
To quantify cell viability, LIVE/DEAD Viability/Cytotoxicity Kit (L3224, Thermo Fisher Scientific) was used. […] At least 10 spheroids were measured. […]

With `Cc1csc2c1c(=O)n(O)c(=O)n2-c1ccccc1` [PTPD, 3-hydroxy-5-methyl-1-phenylthieno [2,3 d]pyrimidine-2,4(1H,3H)-dione], in assay [1], the “sensitivity to FEN1 inhibitor” value was “did not observe increased sensitivity”. For the same compound, the “cell death in 3D spheroids” value with PEO4 spheroids was “increased cell death”.

Source of the values: paper PMC8070745, “FEN1 Blockade for Platinum Chemo-Sensitization and Synthetic Lethality in Epithelial Ovarian Cancers” (Cancers, 2021).
